According to article PMC11187542, “Identification of fragments targeting SMYD3 using highly sensitive kinetic and multiplexed biosensor-based screening” (RSC Medicinal Chemistry, 2024):

Columns and labels:
SMYD3 [1] = target: T1, SMYD3 (Homo sapiens, UniProt Q9H7B4); assay: X-ray crystallography of SMYD3-fragment complexes (co-crystallization and soaking); design: key to XRC: success or failure of crystallization in complex with SMYD3: The success (+) or failure (−) of crystallization in complex with SMYD3; The success (+) or failure (−) of crystallization in complex with SMYD3; conditions: 5 mM fragment co-crystallization or soaking
T1 construct: Full length recombinant SMYD3 was produced as previously reported; made in house; host or cells: E. coli BL21(DE3), in some cases Rosetta 2
T1 sequence (Q9H7B4 1-428): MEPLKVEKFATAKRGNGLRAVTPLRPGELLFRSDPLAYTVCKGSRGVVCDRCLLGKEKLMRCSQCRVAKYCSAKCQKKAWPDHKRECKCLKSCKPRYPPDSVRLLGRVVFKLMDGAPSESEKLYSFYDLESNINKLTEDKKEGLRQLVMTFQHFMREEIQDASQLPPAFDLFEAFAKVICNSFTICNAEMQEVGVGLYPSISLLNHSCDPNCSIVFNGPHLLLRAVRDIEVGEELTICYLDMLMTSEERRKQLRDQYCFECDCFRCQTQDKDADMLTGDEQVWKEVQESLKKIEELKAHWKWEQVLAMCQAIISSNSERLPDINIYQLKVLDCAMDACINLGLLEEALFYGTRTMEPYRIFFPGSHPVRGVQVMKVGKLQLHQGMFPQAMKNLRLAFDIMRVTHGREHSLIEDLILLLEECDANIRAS
Excerpt: To identify binding sites and binding modes, the fragment hits (Table 1) were used in both co-crystallization and soaking experiments to obtain SMYD3-fragment co-crystals for X-ray crystallographic analyses. Diffraction data of 1.6–1.9 Å maximum resolution were obtained for four fragments (Fig. 5). For data collection and refinement statistics, see ESI, ^† Table S1.
Four new sites were thus identified.
Polder (F0–Fc) maps (Fig. 5, right) were generated to establish whether the observed electron density features were more likely to represent background noise or to belong to bound fragments. These omit maps are generated upon exclusion of the ligand and surrounding solvent from the model, which aids in visualizing weak densities. […] For fragments FL01507, FL08580 and FL08619, a comparison of the maps obtained after refinement with a bound fragment with maps obtained upon their replacement with either glycerol or acetate, which were present in the crystallization or cryo-protectant solutions, respectively, was required.
8 mg mL^−1 of SMYD3 in storage buffer (TBS buffer containing 2 mM DTT) was pre-incubated for 4–8 hours with 5 mM of a respective fragment hit compound and 10% (v/v) DMSO. Subsequently, 1 μL of this solution was mixed with an equal volume of reservoir solution (100 mM Tris, 100 mM magnesium acetate, 15–17% PEG3350, pH 8.25–8.75) to create the drops for co-crystallization by hanging drop vapour diffusion performed at 20 °C. Needle-like co-crystals nucleated within 12 h of equilibration against the reservoir. In addition, crystals of SMYD3 obtained in ligand-free crystallization setups were soaked with fragment solution prior to freezing. All crystals were cryo-protected via brief immersion in reservoir solution supplemented with 10% (v/v) glycerol.
Diffraction data were collected at beamline ID23-1 of the European Synchrotron Radiation Facility (ESRF, Grenoble, France). Data were indexed, auto-processed, scaled and merged on-site using the implemented data processing routines and software. Fragment-associated electron density features were identified upon data analysis with the Pipedream system (version 1.4.0, Global Phasing Ltd, Cambridge, United Kingdom), which includes data processing with autoPROC,[14] molecular replacement with Phaser,[15] structure refinement with BUSTER version 2.10.4 (Global Phasing Ltd, Cambridge, United Kingdom), automated ligand fitting with Rhofit (Global Phasing Ltd, Cambridge, United Kingdom) and BUSTER post-refinement.[16] Refinement was done with Phenix,[17] and model building with Coot.[18] (F0–Fc) difference density maps for models, from which ligand atoms and surrounding water molecules were removed, were generated using Phenix.

[2] = target: T2, SMYD3 in complex with active site-specific tight-binding inhibitor EPZ031686 (Homo sapiens, UniProt Q9H7B4); assay: GCI biosensor kinetic screening, active site blocked SMYD3 surface; conditions: for LE (ligand efficiency): LE = −RT ln(KD)/n, blocked SMYD3 surface; for Kd / kd / kon at 250 µM: initial kinetic screening, fragment 250 μM, 15 °C; for Kd: SMYD3 blocked by EPZ031686; for kd / kon at 250 µM: SMYD3 blocked by EPZ031686, 1:1 model; for kon at 250 µM: read-out: ka
T2 construct: Full length recombinant SMYD3 was produced as previously reported; made in house; host or cells: E. coli BL21(DE3), in some cases Rosetta 2
T2 sequence (Q9H7B4 1-428): T1 sequence (Q9H7B4 1-428)
Excerpt: (§1) A multiplexed screening assay was set up with three different SMYD3 surfaces and a blank reference surface in flow channels 1–4 (FC1–FC4) (Fig. 2a), as described previously.[5] The apo SMYD3 surface detected fragments interacting anywhere on SMYD3, while a SMYD3 surface blocked by active site-specific tight-binding inhibitor EPZ031686 detected compounds binding elsewhere. The denatured surface served as a reference, detecting fragments binding to unfolded proteins, also potentially present to a significant degree in the other two surfaces.
(§2) The library was screened using the approach described in Fig. 1, i.e. injection of fragments at 250 μM for increasing durations of time in a single cycle, using a flow rate of 100 μL min^−1, data acquisition set to 40 Hz and with an association time of 5 s and dissociation of 20 s. Each fragment was addressed to all four channels and interactions with the native and blocked surfaces compared. The experimental conditions were chosen to ensure that the assay could reliably characterize the fast and transient interactions expected from typical fragments.
(§3) The kinetic screening of 1056 compounds was successfully completed in 72 hours. […] Hits were identified with full kinetic information using dissociation phases.
(§4) All interaction kinetic experiments were conducted with a GCI–flow-based biosensor (WAVEdelta, Creoptix AG/Malvern Panalytical) and PCH WAVEchip (Creoptix AG/Malvern Panalytical) sensor chips. The sensor chips were conditioned using injections of borate buffer (10 mM sodium tetraborate pH 8.5, 1 M NaCl). The running buffer composition, if not otherwise stated, was TBS buffer (50 mM Tris, 150 mM NaCl, 0.5 mM TCEP, 0.05% Tween 20, 1% DMSO, pH 8). SMYD3 was diluted to the desired concentration in 10 mM bis-Tris (pH 7.0) and amine coupled to the sensor surface of the PCH sensor chip. The sensor chip was functionalized at 25 °C by immobilising SMYD3 with EDC and NHS (Xantec) using an injection time of 420 s and a flow rate of 10 μL min^−1. The immobilisation levels ranged from 5000 pg mm^−2 to 18 500 pg mm^−2 surface mass to enable analysis of fragments spanning a broad range of affinities. After immobilization, the surface was deactivated with a running buffer containing 50 mM Tris for 420 s. The GCI data referencing and analysis were performed using WAVEcontrol V4.5 (Creoptix AG).
(§5) Kinetic measurements with controls and fragments were performed at 15 °C. Analysis of controls and follow up of hits was done using the multi cycle kinetic (MCK) injection of a concentration series for the same time, with a two-fold serial dilution starting at 250 μM for each compound. Solvent correction was performed ranging from 0.5–1.8% DMSO. Blank samples of the running buffer, 1× TBS (50 mM Tris, 150 mM NaCl, 0.5 mM TCEP, 0.05% Tween 20, 1% DMSO, pH 8), were injected during the measurements every fifth cycle. The experimental design illustrated in Fig. 1 was used for the screening against all four surfaces. The sensorgrams were adjusted to account for solvent correction and blank subtraction. Kinetic fitting was performed with the Direct Kinetics engine of WAVEcontrol software V4.5 (Creoptix AG) with a suitable fitting model.

SMYD3 [3] = target: T1, SMYD3; assay: GCI biosensor multi cycle kinetic confirmation of hits; type: binding; conditions: two-fold serial dilution starting at 250 μM, 15 °C, global fit 1:1 model
Protocol: Selected screening hits were also re-tested by conventional multi cycle kinetic analysis in order to confirm the interactions (some compounds were no longer available). Two variants of the GCI biosensor assay were set up, using different immobilisation levels, to allow the confirmation of hits over a broad range of affinities. […] The kinetics varied for the selected hits (ESI, ^† Fig. S2). All hits were not confirmed (ESI, ^† Fig. S1b).
as §4, §5
FL06268 Superstoichiometric and
Figure 1. Examples of sensorgrams from multicycle kinetic experiments with initial fragment hits and SMYD3. A)
Fragments for which crystal structures of the complex with SMYD3 were obtained. A global fit of the sensorgrams
crystal structures were not obtained. […]

SMYD3 (apo, native) = target: T3, SMYD3 (apo, native) (Homo sapiens, UniProt Q9H7B4); assay: GCI biosensor kinetic screening, apo SMYD3 surface; type: binding; conditions: for LE (ligand efficiency): LE = −RT ln(KD)/n; for Kd / kd / kon at 250 µM: initial kinetic screening, fragment 250 μM, 15 °C; for kd / kon at 250 µM: 1:1 model; for kon at 250 µM: read-out: ka
T3 construct: Full length recombinant SMYD3 was produced as previously reported; made in house; host or cells: E. coli BL21(DE3), in some cases Rosetta 2
T3 sequence (Q9H7B4 1-428): T1 sequence (Q9H7B4 1-428)
Excerpt: as §1
After preparing the sensor surface and immobilising SMYD3, the functionality of the surface was assessed via analysis of interactions with the co-factor product S-adenosyl-homocysteine (SAH). It was used as a control in all experiments, confirming that sensor surfaces were intact. This was done using the novel multiple injection-based experimental design (Fig. 1) at 25 μM, i.e. in a weak binder mode (Fig. 2b).
as §2, §3, §4, §5

SMILES | XRC: success or failure of crystallization in complex with SMYD3 (SMYD3 [1]) | LE (ligand efficiency) [2] | Kd [2] [µM] | kd [2] [s⁻¹] | kon at 250 µM [2] [M⁻¹ s⁻¹] | Outcome of multicycle kinetic experiment (sensorgram assessment) (SMYD3 [3]) | LE (ligand efficiency) (SMYD3 (apo, native)) | Kd (SMYD3 (apo, native)) [µM] | kd (SMYD3 (apo, native)) [s⁻¹] | kon at 250 µM (SMYD3 (apo, native)) [M⁻¹ s⁻¹]
Oc1ccc2ccncc2c1 [FL01657] | (−) | 0.53 (kcal^-1 mol^-1)/HA | 56 | 1.09 | 19400 |  |  |  |  | 
N#Cc1cccc(O)c1 [FL01507] | (+) |  |  |  |  | Complex interaction | 0.72 (kcal^-1 mol^-1)/HA | 17.9 | 1.3 | 72000
COc1ccccc1C1OC(=O)CC1C(=O)O (stereo not shown) [FL03512] | (−) |  |  |  |  |  | 0.35 (kcal^-1 mol^-1)/HA | 38 | 1.61 | 42200
CC(C)c1nsc(N)n1 [FL01791] | (+) | 0.67 (kcal^-1 mol^-1)/HA | 37 | 1.46 | 39100 |  |  |  |  | 
N#Cc1cc(Br)ccc1O [FL01750] | (−) |  |  |  |  | No binding | 0.61 (kcal^-1 mol^-1)/HA | 31.6 | 0.93 | 29500
NC(=O)c1cccc(O)c1 [FL08580] | (−) |  |  |  |  |  | 0.70 (kcal^-1 mol^-1)/HA | 7.84 | 0.93 | 118000
Nc1ccnc(-c2cccnc2)n1 [FL08779] | (−) | 0.48 (kcal^-1 mol^-1)/HA | 25 | 1.07 | 41900 |  |  |  |  | 
Nc1nnc(-c2cccnc2)s1 [FL08795] | (−) |  |  |  |  |  | 0.49 (kcal^-1 mol^-1)/HA | 51.3 | 2.04 | 39700
O=S(=O)(c1ccccc1)C1CCNC1 (stereo not shown) [FL08644] | (−) | 0.51 (kcal^-1 mol^-1)/HA | 5.6 | 0.42 | 75200 |  |  |  |  | 
CC(C)(C)OC(=O)NC1CCC(CC(=O)O)CC1 (stereo not shown) [FL08758] | (−) | 0.32 (kcal^-1 mol^-1)/HA | 60 | 2.01 | 33300 |  |  |  |  | 
O=C(O)c1cc(Br)c(O)c(Br)c1 [FL01775] | (−) | 0.48 (kcal^-1 mol^-1)/HA | 56 | 1.37 | 24400 |  |  |  |  | 
O=c1cc(C(F)(F)F)c2cc(Cl)c(O)cc2o1 [FL01677] | (−) |  |  |  |  | No binding | 0.35 (kcal^-1 mol^-1)/HA | 44.4 | 0.96 | 21600
COc1ccc(-n2ncc(C(=O)O)c2C)cc1 [FL01833] | (−) | 0.31 (kcal^-1 mol^-1)/HA | 149 | 1.46 | 9780 |  |  |  |  | 
O=C(O)c1ccnc2ccccc12 [FL02261] | (−) |  |  |  |  |  | 0.50 (kcal^-1 mol^-1)/HA | 17.4 | 1.09 | 62700
Nc1ccc(S(N)(=O)=O)cc1 [FL04272] | (−) |  |  |  |  |  | 0.66 (kcal^-1 mol^-1)/HA | 4.4 | 0.68 | 150000
Nc1nc2cccnc2cc1Br [FL01891] | (−) |  |  |  |  |  | 0.52 (kcal^-1 mol^-1)/HA | 27.4 | 0.70 | 25900
COc1ccc(Br)cc1N [FL01938] | (−) | 0.53 (kcal^-1 mol^-1)/HA | 124 | 1.61 | 13000 |  |  |  |  | 
